Assay results: patent US20170368082A1, “FORMULATIONS OF BRINCIDOFOVIR” (priority 2016, published 2017)

Assay: Tissue distribution by quantitative whole-body autoradiography (QWBA)
Format: in vivo, male Sprague Dawley and Long-Evans rats
Conditions: for Concentration of radioactivity: SD rat, 15 mg/kg IV
Description: The study utilized 4 groups of male SD rats (albino), and 3 groups of male LE rats (pigmented); a total of 39 rats. All animals were obtained from Hilltop Lab Animals, Inc. (Scottdale, Pa.). […] Rats in Group 5 were administered a single 2-h IV infusion of [^14C]brincidofovir at a target dose of 2 mg/kg. […] Three dosing formulations (one for high dose IV, one for low dose IV, and one for PO dose) were prepared at QPS on the day of dosing. The IV formulation for Groups 1, 2, 3, and 4 contained a vehicle of 10 mM sodium phosphate buffer in 5% dextrose solution at pH 8.0(±0.1).
Each animal, at their respective termination time points, was euthanized for QWBA analysis immediately after blood collection. One rat per time point per Group was euthanized as listed below.
The blood samples were maintained on wet ice (approximately 4° C.) and then centrifuged to obtain plasma within 1 h of the blood collection time. Centrifuge settings were recorded in the study notebook. Duplicate aliquots of plasma (0.050 mL) were analyzed for radioactivity using direct counting by LSC, and residual plasma was stored at approximately −70° C. and was saved for possible future analysis under a separate study protocol. Residual red blood cells were discarded as radioactive waste.
The pinna, distal limbs, hair, and tail were removed from each frozen carcass and each frozen carcass was embedded in an aqueous suspension of approximately 2% (w/v) carboxymethylcellulose and frozen into a block. The blocks were stored at approximately −20° C. prior to sectioning. Each blocked carcass was mounted on the object stage of a cryomicrotome (Leica CM3600 Cryomacrocut, Nussloch, Germany and Vibratome 9800, St. Louis, Mo.) maintained at approximately −20° C. and internal standards (3), which were plasma fortified with [^14C]-glucose at one concentration (approximately 0.05 μCi/mL), were placed into the frozen blocks, prior to sectioning, and were used for section thickness quality control. A number of whole-body sections (approximately 40 μm thick) were taken in the sagittal plane at various levels of interest using a whole-body cryomicrotome set at −20° C. Sagittal sections (20-50 μm thick) of frozen carcasses were exposed to phosphor imaging plates. Regions of images in tissues were converted to concentrations using standards. All of the major tissues, organs, and biological fluids were represented.
Tissue concentration data was determined for the following tissues and/or contents: adipose (brown and white), adrenal gland, bile (in duct), blood (cardiac), bone, bone marrow, brain (cerebrum, cerebellum, medulla), cecum (and contents), large intestine (and contents), epididymis, esophagus, eye (uvea and lens), Harderian gland, heart, kidney (cortex and medulla), liver, lung, lymph node, pancreas, pituitary gland, prostate gland, salivary gland, seminal vesicles, skeletal muscle, skin (pigmented and non-pigmented), small intestine (and contents), stomach (gastric mucosa and contents), spleen, spinal cord, testis, thymus, thyroid, and urinary bladder (and contents).
The imaging plate and sections were placed in light-tight exposure cassettes, in a copper-lined lead safe, for a 4-day exposure at room temperature. […] Quantification was performed by image densitometry using MCD image analysis software (v. 7.0, Interfocus Imaging Ltd) and a standard curve constructed from the integrated response [i.e., Molecular Dynamics Counts per square millimeter (MDC/mm^2)] and the nominal concentrations of the ^14C-calibration standards. The concentrations of radioactivity were expressed as the μg equivalents of [^14C]brincidofovir per gram sample (μg equiv/g). A lower limit of quantification (LLOQ) was applied to the data (See section 6.7.4).
Tissue concentrations that fell below the LLOQ were identified as being below the quantification limit (BQL). Tissue areas that were not visualized on autoradiographic images were identified as no sample (NS) and reported as BQL.

CCCCCCCCCCCCCCCCOCCCOP(=O)(O)CO[C@H](CO)Cn1ccc(N)nc1=O [[^14C]brincidofovir]
Concentration at Tmax: kidney medulla (Group 6 SD, 15 mg/kg PO): 7.9 μg equiv/g | Concentration at Tmax: liver (Group 6 SD, 15 mg/kg PO): 20.6 μg equiv/g | Concentration at Tmax: small intestine (Group 6 SD, 15 mg/kg PO): 236.3 μg equiv/g | Concentration at Tmax: stomach (Group 6 SD, 15 mg/kg PO): 11.2 μg equiv/g | Concentration at Tmax: urinary bladder (Group 6 SD, 15 mg/kg PO): 17.3 μg equiv/g | Residual concentration in small intestine at 168 h (Group 6 SD, 15 mg/kg PO): 2.7 μg equiv/g | Highest observed concentration in blood (Group 6 SD, 15 mg/kg PO, 2 h): 0.200 μg equiv/g | Urinary bladder contents (Group 7, 8 h): 110.9 μg equiv/g | Concentration of radioactivity, Eye (lens) (Group 7 LE pigmented rats, oral 15 mg/kg, c2-c11 = 0.5, 1, 2, 4, 8, 24, 72, 96, 168, 840 h, LLOQ 0.034): BQL | Concentration at Tmax: cecum (Group 7 LE, 15 mg/kg PO): 7.6 μg equiv/g | Concentration at Tmax: kidney cortex (Group 7 LE, 15 mg/kg PO): 17.8 μg equiv/g | Concentration at Tmax: kidney medulla (Group 7 LE, 15 mg/kg PO): 9.1 μg equiv/g | Concentration at Tmax: large intestine (Group 7 LE, 15 mg/kg PO): 3.3 μg equiv/g | Concentration at Tmax: liver (Group 7 LE, 15 mg/kg PO): 36.1 μg equiv/g | Concentration at Tmax: small intestine (Group 7 LE, 15 mg/kg PO): 458.5 μg equiv/g | Concentration at Tmax: stomach (Group 7 LE, 15 mg/kg PO): 12.0 μg equiv/g | Concentration at Tmax: urinary bladder (Group 7 LE, 15 mg/kg PO): 3.7 μg equiv/g | Highest observed concentration in blood (Group 7 LE, 15 mg/kg PO, 8 h): 1.1 μg equiv/g | Concentration of radioactivity (Harderian Gland, 2 h): 2.081 μg equiv./g | Concentration of radioactivity (Harderian Gland, 24 h): 1.278 μg equiv./g | Concentration of radioactivity (Harderian Gland, 168 h): 0.954 μg equiv./g | Concentration of radioactivity (Heart, 2 h): 2.540 μg equiv./g | Concentration of radioactivity (Heart, 24 h): 0.408 μg equiv./g | Concentration of radioactivity (Heart, 168 h): 0.057 μg equiv./g | Radioactivity in brain and spinal cord relative to plasma concentration (IV administration): ~20% | Tissue to plasma ratios (T/P) in liver, kidney and small intestine (IV and oral): > 30 | Small intestine tissue to plasma ratio (IV infusion, 15 mg/kg): 32 | Concentration of radioactivity (Kidney Cortex, 2 h): 106.513 μg equiv./g | Concentration of radioactivity (Kidney Cortex, 24 h): 32.109 μg equiv./g | Concentration of radioactivity (Kidney Cortex, 168 h): 0.474 μg equiv./g | Concentration of radioactivity (Kidney Medulla, 2 h): 33.444 μg equiv./g | Concentration of radioactivity (Kidney Medulla, 24 h): 4.271 μg equiv./g | Concentration of radioactivity (Kidney Medulla, 168 h): 0.186 μg equiv./g | Concentration of radioactivity (Liver, 2 h): 229.371 μg equiv./g | Concentration of radioactivity (Liver, 24 h): 13.907 μg equiv./g | Concentration of radioactivity (Liver, 168 h): 0.453 μg equiv./g | Concentration of radioactivity (Lung, 2 h): 5.675 μg equiv./g | Concentration of radioactivity (Lung, 24 h): 1.128 μg equiv./g | Concentration of radioactivity (Lung, 168 h): 0.296 μg equiv./g | Concentration of radioactivity (Lymph Node, 2 h): 4.055 μg equiv./g | Concentration of radioactivity (Lymph Node, 24 h): 1.004 μg equiv./g | Concentration of radioactivity (Lymph Node, 168 h): 0.247 μg equiv./g | Concentration of radioactivity (Pancreas, 2 h): 1.974 μg equiv./g | Concentration of radioactivity (Pancreas, 24 h): 0.557 μg equiv./g | Concentration of radioactivity (Pancreas, 168 h): BQL (BQL = Value is below the LLOQ) | Concentration of radioactivity (Pituitary Gland, 2 h): 2.793 μg equiv./g | Concentration of radioactivity (Pituitary Gland, 24 h): 1.021 μg equiv./g | Concentration of radioactivity (Pituitary Gland, 168 h): 0.257 μg equiv./g | Concentration of radioactivity (Prostate Gland, 2 h): 2.033 μg equiv./g | Concentration of radioactivity (Prostate Gland, 24 h): 0.254 μg equiv./g | Concentration of radioactivity (Prostate Gland, 168 h): 0.051 μg equiv./g | Concentration of radioactivity (Salivary Gland, 2 h): 2.049 μg equiv./g | Concentration of radioactivity (Salivary Gland, 24 h): 0.395 μg equiv./g | Concentration of radioactivity (Salivary Gland, 168 h): 0.047 μg equiv./g | Concentration of radioactivity (Seminal Vesicles, 2 h): 1.809 μg equiv./g | Concentration of radioactivity (Seminal Vesicles, 24 h): 1.636 μg equiv./g | Concentration of radioactivity (Seminal Vesicles, 168 h): 0.817 μg equiv./g | Concentration of radioactivity (Skeletal Muscle, 2 h): 0.868 μg equiv./g | Concentration of radioactivity (Skeletal Muscle, 24 h): 0.099 μg equiv./g | Concentration of radioactivity (Skeletal Muscle, 168 h): BQL (BQL = Value is below the LLOQ) | Concentration of radioactivity (Skin (non-pigmented), 2 h): 2.277 μg equiv./g | Concentration of radioactivity (Skin (non-pigmented), 24 h): 0.602 μg equiv./g | Concentration of radioactivity (Skin (non-pigmented), 168 h): 0.121 μg equiv./g | Concentration of radioactivity (Spinal Cord, 2 h): 0.437 μg equiv./g | Concentration of radioactivity (Spinal Cord, 24 h): 0.079 μg equiv./g | Concentration of radioactivity (Spinal Cord, 168 h): BQL (BQL = Value is below the LLOQ) | Concentration of radioactivity (Spleen, 2 h): 4.536 μg equiv./g | Concentration of radioactivity (Spleen, 24 h): 2.244 μg equiv./g | Concentration of radioactivity (Spleen, 168 h): 0.694 μg equiv./g | Concentration of radioactivity (Testis, 2 h): 1.647 μg equiv./g | Concentration of radioactivity (Testis, 24 h): 0.436 μg equiv./g | Concentration of radioactivity (Testis, 168 h): 0.078 μg equiv./g | Concentration of radioactivity (Thymus, 2 h): 2.373 μg equiv./g | Concentration of radioactivity (Thymus, 24 h): 0.556 μg equiv./g | Concentration of radioactivity (Thymus, 168 h): 0.105 μg equiv./g | Concentration of radioactivity (Thyroid, 2 h): 2.751 μg equiv./g | Concentration of radioactivity (Thyroid, 24 h): 0.791 μg equiv./g | Concentration of radioactivity (Thyroid, 168 h): 0.239 μg equiv./g | Concentration of radioactivity (Urinary Bladder (contents), 2 h): 47.034 μg equiv./g | Concentration of radioactivity (Urinary Bladder (contents), 24 h): 21.237 μg equiv./g | Concentration of radioactivity (Urinary Bladder (contents), 168 h): 0.121 μg equiv./g | Concentration of radioactivity (Urinary Bladder, 2 h): 35.978 μg equiv./g | Concentration of radioactivity (Urinary Bladder, 24 h): 2.264 μg equiv./g | Concentration of radioactivity (Urinary Bladder, 168 h): 0.132 μg equiv./g | Radioactivity in brain and spinal cord relative to plasma concentration (oral administration): ~5% | Small intestinal tissue to plasma ratio (T/P) (oral administration, 15 mg/kg): 428 | Residual concentration in small intestine at 168 h (pigmented LE rats, 15 mg/kg PO): 5.9 μg equiv/g
